A word on the half-life: it is the time needed for the level to fall by half in the phase considered. A high value points to slow decline. Usually IC50 stands for the point on the concentration scale where inhibition reaches its midpoint. A word on the inhibition: it is the change of the read-out against control, counted positive when it falls. Broadly, the bioavailability is dose-corrected exposure relative to a reference, in per cent. The Vd is the apparent volume that relates the amount in the body to the concentration in plasma or blood. A higher Vd goes with extensive tissue distribution. For orientation: Cmax means the peak of the concentration-time curve. For orientation: AUC means concentration integrated over time. A lower AUC goes with low exposure. As usually defined, the GI50 is the concentration that inhibits growth by half. In general, clearance refers to the rate of elimination divided by the concentration. A high value points to efficient removal. In general, MTD refers to the highest dose tested that stayed within the study's limit of toxicity.

The source of these data is ChEMBL document CHEMBL5230092, “PFKFB3 inhibitors as potential anticancer agents: Mechanisms of action, current developments, and structure-activity relationships” (Eur J Med Chem, 2020).

Data set [1] is described as follows: Half life in iv dosed C57BL/6 mouse by LC-MS/MS analysis. The format is ADME, organism-based. The settings on record: in vivo.
For data set [2], the target named is T1, 6-phosphofructo-2-kinase/fructose-2,6-bisphosphatase 3 (Homo sapiens, UniProt Q16875). As to the kind of experiment: Inhibition of PFKFB3 (unknown origin) by ADP-Glo luminescent assay.
Data set [3] in a line: Half life in Sprague-Dawley rat at 10 mg/kg, iv by LC-MS/MS analysis. The format is ADME, organism-based. The settings on record: in vivo.
The target in data set [4] is T1, 6-phosphofructo-2-kinase/fructose-2,6-bisphosphatase 3. As to the kind of experiment: Inhibition of PFKFB3 (unknown origin) at 250 nM relative to control.
Data set [5] can be described thus: Oral bioavailability in Sprague-Dawley rat by LC-MS/MS analysis. It is filed as ADME, organism-based. The settings on record: in vivo.
The nature of data set [6]: Volume of distribution in Sprague-Dawley rat at 10 mg/kg, iv by LC-MS/MS analysis. The format is ADME, organism-based. The settings on record: in vivo.
A short description of data set [7]: Cmax in Sprague-Dawley rat at 10 mg/kg, iv by LC-MS/MS analysis. It is filed as ADME, organism-based. Also noted: dose 10 mg/kg, route iv. The settings on record: in vivo.
Data set [8] in a line: AUC in Sprague-Dawley rat at 10 mg/kg, iv by LC-MS/MS analysis. Also noted: dose 10 mg/kg, route iv. The format is ADME, organism-based. The settings on record: in vivo.
Data set [9] in a line: Oral bioavailability in Beagle dog by LC-MS/MS analysis. The format is ADME, organism-based, Canis lupus familiaris. The settings on record: in vivo.
Data set [10] can be described thus: AUC in Beagle dog at 6 mg/kg, iv by LC-MS/MS analysis. The format is ADME, organism-based, Canis lupus familiaris. Also noted: dose 6 mg/kg, route iv. The settings on record: in vivo.
Data set [11] is described as follows: Half life in Beagle dog at 6 mg/kg, iv by LC-MS/MS analysis. It is filed as ADME, organism-based, Canis lupus familiaris. The settings on record: in vivo.
The test system of the next data set is MDA-MB-231. Description: Antiproliferative activity against human MDA-MB-231 cells assessed as cell growth inhibition measured after 72 hrs by MTT assay. It is filed as functional. A general note: Formazan colour is commonly taken as a measure of viable cells.
In another data set the test system is A549. Description: Antiproliferative activity against human A549 cells assessed as cell growth inhibition measured after 72 hrs by MTT assay. It is filed as functional.
The next data set relates to HT-29. Description: Antiproliferative activity against human HT-29 cells assessed as cell growth inhibition measured after 72 hrs by MTT assay. It is filed as functional.
Data set [12] addresses T1, 6-phosphofructo-2-kinase/fructose-2,6-bisphosphatase 3. As to the kind of experiment: Inhibition of PFKFB3 (unknown origin) at 100 uM relative to control.
Data set [13] deals with HeLa. Description: Antiproliferative activity against human HeLa cells assessed as cell growth inhibition measured after 72 hrs by MTT assay. The format is functional.
Data set [14] has as its target T1, 6-phosphofructo-2-kinase/fructose-2,6-bisphosphatase 3. Description: Binding affinity to PFKFB3 (unknown origin) by MST assay.
The target is the same in data set [15]. The format is cell-based, PANC-1.
Data set [16] is described as follows: Half life in BALBc mouse at 10 mg/kg, iv by LC-MS/MS analysis. It is filed as ADME, organism-based. The settings on record: BALB/c, in vivo.
A short description of data set [17]: Oral bioavailability in BALBc mouse by LC-MS/MS analysis. The format is ADME, organism-based. The settings on record: BALB/c, in vivo.
The nature of data set [18]: AUC in BALBc mouse at 10 mg/kg, iv by LC-MS/MS analysis. It is filed as ADME, organism-based. Also noted: dose 10 mg/kg, route iv. The settings on record: BALB/c, in vivo.
For data set [19], the target named is 6-phosphofructo-2-kinase/fructose-2,6-bisphosphatase 1 (Homo sapiens) (UniProt P16118). Description: Inhibition of PFKFB1 (unknown origin) at 5.94 uM relative to control.
Data set [20] addresses 6-phosphofructo-2-kinase/fructose-2,6-bisphosphatase 4 (Homo sapiens) (UniProt Q16877). Description: Inhibition of PFKFB4 (unknown origin) at 5.94 uM relative to control.
Data set [21] has as its target 6-phosphofructo-2-kinase/fructose-2,6-bisphosphatase 2 (Homo sapiens) (UniProt O60825). As to the kind of experiment: Inhibition of PFKFB2 (unknown origin) at 5.94 uM relative to control.
Data set [22] is described as follows: Half life in BALB/c mouse at 5 mg/kg, iv by LC-MS/MS analysis. The format is ADME, organism-based. The settings on record: in vivo.
Data set [23] can be described thus: AUC in BALB/c mouse at 5 mg/kg, iv by LC-MS/MS analysis. The format is ADME, organism-based. Also noted: dose 5 mg/kg, route iv. The settings on record: in vivo.
Data set [24] can be described thus: Clearance in BALB/c mouse at 5 mg/kg, iv by LC-MS/MS analysis. The format is ADME, organism-based. The settings on record: in vivo.
Data set [25] in a line: Toxicity in Sprague-Dawley rat assessed as maximum tolerated dose. The settings on record: in vivo.
Data set [26] in a line: Metabolic stability in human liver microsomes. The format is ADME, Microsome.
Data set [27] can be described thus: Cytotoxicity against human Epithelial cell assessed as cell growth inhibition. The format is toxicity, cell-based. The settings on record: epithelial cells.
Data set [28] in a line: Metabolic stability in human liver microsomes assessed as clearance. It is filed as ADME, Microsome. The settings on record: read-out: CLH. (Microsomes from liver hold many membrane-bound enzymes, among them those of drug oxidation.)
Data set [29] can be described thus: Metabolic stability in mouse liver microsomes assessed as clearance. It is filed as ADME, Microsome. The settings on record: read-out: CLH.
Data set [30] deals with T1, 6-phosphofructo-2-kinase/fructose-2,6-bisphosphatase 3. Description: Inhibition of full-length human PFKFB3 (1 to 520 residues) incubated for 2 hrs in presence of ATP by ADP-Glo assay.
For data set [31], the system named is HeLa. As to the kind of experiment: Antiproliferative activity against human HeLa cells assessed as cell growth inhibition. It is filed as functional.
For data set [32], the target named is T1, 6-phosphofructo-2-kinase/fructose-2,6-bisphosphatase 3. Description: Inhibition of PFKFB3 (unknown origin) by UV-vis spectrophotometry.
For data set [33] the target is unchanged. As to the kind of experiment: Inhibition of PFKFB3 (unknown origin) incubated for 90 mins by ADP-Glo luminescent assay.
Data set [34] has the same target. The format is cell-based, MIA PaCa-2.
For data set [35] the target is unchanged. The format is cell-based, NUGC-3.
Data set [36] shares this target. As to the kind of experiment: Inhibition of PFKFB3 (unknown origin).

T1 sequence (Q16875 whole entry): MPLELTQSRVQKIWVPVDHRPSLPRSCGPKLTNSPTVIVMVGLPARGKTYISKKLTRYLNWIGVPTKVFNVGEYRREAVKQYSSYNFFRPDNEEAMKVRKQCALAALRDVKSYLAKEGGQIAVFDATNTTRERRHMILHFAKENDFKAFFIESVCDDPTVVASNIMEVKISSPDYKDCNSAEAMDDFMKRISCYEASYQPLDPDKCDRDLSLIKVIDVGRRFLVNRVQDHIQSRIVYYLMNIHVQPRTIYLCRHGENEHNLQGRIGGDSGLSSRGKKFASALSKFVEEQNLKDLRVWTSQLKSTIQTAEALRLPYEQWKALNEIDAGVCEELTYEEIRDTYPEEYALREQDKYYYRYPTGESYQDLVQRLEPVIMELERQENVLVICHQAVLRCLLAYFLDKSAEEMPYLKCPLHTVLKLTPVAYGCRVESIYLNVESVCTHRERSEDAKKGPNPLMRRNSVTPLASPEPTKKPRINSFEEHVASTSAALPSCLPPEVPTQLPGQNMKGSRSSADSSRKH
6-phosphofructo-2-kinase/fructose-2,6-bisphosphatase 4 (Homo sapiens), sequence (Q16877 whole entry, looked up): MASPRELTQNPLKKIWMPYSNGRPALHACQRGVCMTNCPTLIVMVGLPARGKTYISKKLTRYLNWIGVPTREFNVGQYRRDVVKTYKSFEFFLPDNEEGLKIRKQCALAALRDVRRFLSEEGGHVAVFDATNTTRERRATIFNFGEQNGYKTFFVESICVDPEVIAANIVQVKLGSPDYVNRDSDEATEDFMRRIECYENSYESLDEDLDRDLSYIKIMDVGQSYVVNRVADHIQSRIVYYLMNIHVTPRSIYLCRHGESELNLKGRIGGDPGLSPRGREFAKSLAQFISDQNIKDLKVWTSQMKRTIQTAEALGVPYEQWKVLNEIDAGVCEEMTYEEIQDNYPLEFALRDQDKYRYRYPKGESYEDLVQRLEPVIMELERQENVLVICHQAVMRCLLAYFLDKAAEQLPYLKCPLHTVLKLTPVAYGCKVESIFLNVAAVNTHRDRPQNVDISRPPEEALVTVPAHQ
6-phosphofructo-2-kinase/fructose-2,6-bisphosphatase 1 (Homo sapiens), sequence (P16118 2-471 limits assumed): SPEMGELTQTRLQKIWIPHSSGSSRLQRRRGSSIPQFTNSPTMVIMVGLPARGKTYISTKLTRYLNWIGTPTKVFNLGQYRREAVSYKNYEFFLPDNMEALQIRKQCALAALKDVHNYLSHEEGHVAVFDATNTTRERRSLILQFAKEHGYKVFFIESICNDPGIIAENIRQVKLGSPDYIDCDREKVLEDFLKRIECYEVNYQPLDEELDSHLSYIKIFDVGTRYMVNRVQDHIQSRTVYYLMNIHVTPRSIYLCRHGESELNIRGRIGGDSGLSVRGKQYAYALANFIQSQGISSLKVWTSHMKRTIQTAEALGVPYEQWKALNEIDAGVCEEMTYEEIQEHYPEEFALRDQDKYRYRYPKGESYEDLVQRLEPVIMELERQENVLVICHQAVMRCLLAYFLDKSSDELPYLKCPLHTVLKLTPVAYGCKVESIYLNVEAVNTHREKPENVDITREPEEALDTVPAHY
6-phosphofructo-2-kinase/fructose-2,6-bisphosphatase 2 (Homo sapiens), sequence (O60825 2-505 limits assumed): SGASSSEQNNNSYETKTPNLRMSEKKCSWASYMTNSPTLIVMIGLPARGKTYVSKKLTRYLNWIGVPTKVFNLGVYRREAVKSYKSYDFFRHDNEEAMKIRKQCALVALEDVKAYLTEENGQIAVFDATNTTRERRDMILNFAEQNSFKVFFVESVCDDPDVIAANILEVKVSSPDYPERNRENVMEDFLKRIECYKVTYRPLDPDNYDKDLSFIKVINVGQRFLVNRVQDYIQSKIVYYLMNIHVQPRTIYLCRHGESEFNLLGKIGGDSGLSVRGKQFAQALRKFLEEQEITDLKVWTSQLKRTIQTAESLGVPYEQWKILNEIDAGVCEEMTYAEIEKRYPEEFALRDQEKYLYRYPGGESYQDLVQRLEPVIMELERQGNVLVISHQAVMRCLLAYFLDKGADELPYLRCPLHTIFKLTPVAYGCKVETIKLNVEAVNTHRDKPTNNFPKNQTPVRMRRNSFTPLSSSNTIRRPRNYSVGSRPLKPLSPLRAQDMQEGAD

Turning to `O=C(/C=C/c1ccc2ccccc2n1)c1ccncc1`, the half-life in [1] was 5.1 h.

Compound `O=C(O)c1ccc(NS(=O)(=O)c2cccc(-c3ccc4ncccc4c3)c2)cc1O` came in with an IC50 in data set [2] of 0.28 µM.

As for `Cl.O=C(c1ccncc1)c1cc2c(ccc3ccccc32)[nH]1`, the half-life in [3] is 5.5 h. In addition, the inhibition in data set [4] is 26.2%. The bioavailability in data set [5] was 38%. The Vd in data set [6] was found to be 2.5 L/kg. In [7], the Cmax was 16900 ng/mL. Also, in [8], the area under the curve (AUC) is 1290 ng·h/mL.

Compound `Nc1ccc(C(=O)c2cc3c(ccc4ccccc43)[nH]2)cc1` came in with an inhibition in data set [4] of 81.5%. The same compound registered a bioavailability in data set [9] of 95%. Further, in [10], the AUC was determined as 5070 ng·h/mL. The half-life in [11] was 5.8 h.

As for `Cc1ccc(/C=N/NC(=O)c2nnn(-c3nonc3N)c2-c2ccc([N+](=O)[O-])cc2)cc1`, the GI50 in the data set with MDA-MB-231 is 18 µM; in the data set with A549, 18 µM; with HT-29, 18 µM; with HeLa [13], 15.1 µM. In [12], the inhibition worked out at 17%.

In the case of `CC(C)C[C@H](NC(=O)[C@H](CC(C)C)NC(=O)[C@H](Cc1ccccc1)NC(=O)[C@@H](N)CO)C(=O)N[C@@H](CCCN=C(N)N)C(N)=O`, in data set [14], the K was determined as 18 µM.

Consider `N[C@H](Cc1c[nH]c2ccccc12)C(=O)NCC(=O)N[C@H](Cc1ccc(O)cc1)C(=O)O`, for which, in data set [14], the K turned out to be 3 µM.

Consider `Cc1c(S(=O)(=O)Nc2cccc(C(=O)O)c2)sc2ccc(C(C)C)cc12`, for which the IC50 in [15] came out at 2.3 µM.

For `O=C(O)c1ccc(NS(=O)(=O)c2cc(-c3ccc4c(c3)OCO4)c(Cl)s2)cc1O`, the IC50 in data set [2] stood at 0.2 µM.

In data set [4], `O=C(c1ccccc1)c1cc2c(ccc3ccccc32)[nH]1` returned an inhibition of 13.5%. Moreover, the half-life in data set [16] was 2.1 h. This compound showed a bioavailability in data set [17] of 25%. In addition, the AUC in data set [18] worked out at 2630 ng·h/mL.

In the case of `O=c1cc(-c2ccc(O)cc2)oc2c(O)c(O)c(O)c(O)c12`, the inhibition in data set [19], in data set [20] and in data set [21] was less than 50% in each case.

In the case of `O=C(/C=C/c1ccc2ccc(C(F)(F)F)cc2n1)c1ccncc1` [PFK-158], the half-life in data set [22] is 10.5 h. Besides, the exposure (AUC) in [23] is 3240 ng·h/mL. In data set [24], the clearance was 26 mL/min/kg. Also, in [25], the MTD was greater than 40 mg/kg. Further, the Stability in data set [26] was 37%.

Consider `O=C(/C=C/c1cccnc1)c1ccncc1`, for which, in data set [27], the IC50 was found to be 1.4 µM.

`Cn1cc([C@H](Nc2cc(-c3ccc4ccn(C)c4c3)c3nccnc3c2)c2cnnn2C)cn1`: the results for the microsomal CLint in data set [28] and in data set [29] were 50 µL/min/mg and 29 µL/min/mg, respectively.

On to `O=C1NC=NC2C1C=C(c1ccc(Br)cc1)N2c1ccccc1` (stereo not given), for which the IC50 in data set [30] came to 0.398 µM.

Take `CCOC(=O)c1cc2ccc(O)cc2oc1=O`: the GI50 in the data set with HeLa [31] was 2.7 µM.

In turn, `CC(C)OC(=O)c1cccc(-c2cc(S(=O)(=O)Nc3ccc(C(=O)O)c(O)c3)sc2Cl)c1` returned an IC50 in [2] of 0.15 µM.

In [2], `O=C(O)c1ccc(NS(=O)(=O)c2cc(Cl)sc2Cl)cc1O` returned an IC50 of 0.29 µM.

Compound `COc1cccc([C@H](C)Nc2cc(-c3ccc4ncsc4c3)nc(C)n2)c1` registered an IC50 in data set [32] of less than 0.5 µM.

With `COc1ccc(C(Nc2cc(-c3ccc4ccn(C)c4c3)c3nccnc3c2)c2cnnn2C)cn1` (stereo not given), the IC50 in data set [33] amounted to 0.0035 µM.

As for `O=C(OCCO)c1ccc(NS(=O)(=O)c2cccc(-c3cc(F)ccc3O)c2)cc1O`, the IC50 in data set [34], in data set [35] and in data set [15] was 0.09 µM in each case.

In the case of `O=C1NC=NC2C1C(c1ccc(Cl)cc1)=CN2c1ccccc1` (stereo not given), in data set [30], the IC50 amounted to 0.631 µM.

Consider `O=C(CBr)NCCOP(=O)(O)O`, for which, in [36], inhibition was half-maximal at 2000 µM (IC50).

For `O=C1NC=NC2C1C(c1ccccc1)=CN2c1ccc(Br)cc1` (stereo not given), the IC50 in data set [30] was found to be 0.398 µM.

`CC(C)C[C@H](NC(=O)[C@H](Cc1ccccc1)NC(=O)CNC(=O)[C@H](CO)NC(=O)[C@@H](N)Cc1ccc(O)cc1)C(=O)N[C@H](C(=O)O)[C@@H](C)O`: the K in [14] is 44 µM.

As to `COc1ccc(C2=CN(c3cccc(OC)c3)C3N=CNC(=O)C23)cc1` (stereo not given), the IC50 in data set [30] came to 0.251 µM.
